Values after ≈ are worked out from the molar mass of the structure shown. Like-named read-outs stand apart in the source and are kept apart here.
Columns and labels:
Escherichia coil DC 2 = test: In vitro antibacterial activity (MIC), agar two-fold dilution; assay type: cell-based, Escherichia coli
Method: (§1) The numbers in Tables represent the minimal inhibitory concentration (MIC, μg/ml) of the corresponding strains and MIC was determined in accordance with the agar culture medium two-fold dilution method by using a Mueller-Hinton agar.
(§2) Hoechst standard strains were used. […]

Escherichia coil DC 0 = test: as above; assay type: cell-based, Escherichia coli
Method: as §1, §2

Escherichia coil TEM = test: as above; assay type: cell-based, Escherichia coli
Method: as §1, §2

Escherichia coil 1507E = test: as above; assay type: cell-based, Escherichia coli; details: Mueller-Hinton agar, 10^7 CFU/ml, 37° C., 18 hours
Method: as §1, §2

[1] = tested on: Staphylococcus aureus 503; test: as above; assay type: cell-based
Method: as §1, §2

[2] = tested on: Staphylococcus aureus SG 511; test: as above; assay type: cell-based
Method: as §1, §2

[3] = tested on: Pseudomonas aeruginosa 1771; test: as above; assay type: cell-based
Method: as §1, §2

[4] = tested on: Pseudomonas aeruginosa 1771M; test: as above; assay type: cell-based; details: 18 h
Method: as §1, §2

[5] = tested on: Streptococcus pyogenes 308A; test: as above; assay type: cell-based
Method: as §1, §2

[6] = tested on: Pseudomonas aeruginosa 1592E; test: as above; assay type: cell-based
Method: as §1, §2

Escherichia coli O 78 = test: as above; assay type: cell-based; details: 10^7 CFU/ml, 37° C., 18 hours
Method: as §1, §2

[7] = tested on: Staphylococcus aureus 285; test: as above; assay type: cell-based
Method: as §1, §2

Salmonella typhimurium = test: as above; assay type: cell-based
Method: as §1, §2

[8] = tested on: Pseudomonas aeruginosa 9027; test: as above; assay type: cell-based
Method: as §1, §2

[9] = tested on: Klebsiella aerogenes 1082E; test: as above; assay type: cell-based
Method: as §1, §2

[10] = tested on: Streptococcus faecium MD 8b; test: as above; assay type: cell-based
Method: as §1, §2

[11] = tested on: Streptococcus pyogenes 77A; test: as above; assay type: cell-based
Method: as §1, §2

[12] = tested on: Klebsiella aerogenes 1552E; test: as above; assay type: cell-based
Method: as §1, §2

[13] = tested on: Enterobacter cloacae P 99; assay type: cell-based; details: Mueller-Hinton agar, 10^7 CFU/ml, 37° C., 18 hours
Method: as §1
(§3) Hoechst standard strains were used.

[14] = tested on: Enterobacter cloacae 1321E; test: In vitro antibacterial activity (MIC), agar two-fold dilution; assay type: cell-based; details: Mueller-Hinton agar, 10^7 CFU/ml, 37° C., 18 hours
Method: as §1, §3

[15] = Escherichia coil DC 2, Mueller-Hinton agar, 10^7 CFU/ml, 37° C., 18 hours
[16] = Escherichia coil DC 0, Mueller-Hinton agar, 10^7 CFU/ml, 37° C., 18 hours
[17] = Escherichia coil TEM, Mueller-Hinton agar, 10^7 CFU/ml, 37° C., 18 hours
[18] = Staphylococcus aureus 503, Mueller-Hinton agar, 10^7 CFU/ml, 37° C., 18 hours
[19] = Staphylococcus aureus SG 511, Mueller-Hinton agar, 10^7 CFU/ml, 37° C., 18 hours
[20] = Pseudomonas aeruginosa 1771, Mueller-Hinton agar, 10^7 CFU/ml, 37° C., 18 hours
[21] = Streptococcus pyogenes 308A, Mueller-Hinton agar, 10^7 CFU/ml, 37° C., 18 hours
[22] = Pseudomonas aeruginosa 1592E, Mueller-Hinton agar, 10^7 CFU/ml, 37° C., 18 hours
[23] = Staphylococcus aureus 285, Mueller-Hinton agar, 10^7 CFU/ml, 37° C., 18 hours
[24] = Salmonella typhimurium, Mueller-Hinton agar, 10^7 CFU/ml, 37° C., 18 hours
[25] = Pseudomonas aeruginosa 9027, Mueller-Hinton agar, 10^7 CFU/ml, 37° C., 18 hours
[26] = Klebsiella aerogenes 1082E, Mueller-Hinton agar, 10^7 CFU/ml, 37° C., 18 hours
[27] = Streptococcus faecium MD 8b, Mueller-Hinton agar, 10^7 CFU/ml, 37° C., 18 hours
[28] = Streptococcus pyogenes 77A, Mueller-Hinton agar, 10^7 CFU/ml, 37° C., 18 hours
[29] = Klebsiella aerogenes 1552E, Mueller-Hinton agar, 10^7 CFU/ml, 37° C., 18 hours

Structure (SMILES)	MIC [13]	MIC [14]	MIC (Escherichia coil DC 2; [15])	MIC (Escherichia coil DC 0; [16])	MIC (Escherichia coil TEM; [17])	MIC (Escherichia coil 1507E)	MIC [1, 18]	MIC [2, 19]	MIC [3, 20]	MIC [5, 21]	MIC [6, 22]	MIC (Escherichia coli O 78; Mueller-Hinton agar)	MIC [7, 23]	MIC (Salmonella typhimurium; [24])	MIC [8, 25]	MIC [9, 26]	MIC [10, 27]	MIC [11, 28]	MIC [12, 29]	also measured
O=C(O)c1cn(C2CC2)c2cc(N3CCNCC3)c(F)cc2c1=O [Ciprofloxacin, ciprofloxacin, reference compound]																				MIC (Escherichia coil DC 2; Escherichia, DC2, 18 h): 0.098 µg/mL (≈ 0.296 µM); MIC (Escherichia coil DC 0; Escherichia, DC0, 18 h): 0.195 µg/mL (≈ 0.589 µM); MIC (Escherichia coil TEM; Escherichia, 18 h): 0.007 µg/mL (≈ 0.0211 µM); MIC (Escherichia coil 1507E; read-out: MIC): 0.007 µg/mL (≈ 0.0211 µM); MIC ([1]; Staphylococcus aureus, 503, 18 h): 0.781 µg/mL (≈ 2.36 µM); MIC ([2]; Staphylococcus aureus, SG511, 18 h): 0.195 µg/mL (≈ 0.589 µM); MIC ([3]; Pseudomonas aeruginosa, 1771, 18 h): 0.195 µg/mL (≈ 0.589 µM); MIC [4]: 0.049 µg/mL (≈ 0.148 µM); MIC ([5]; Streptococcus pyogenes, 308A, 18 h): 3.12 µg/mL (≈ 9.43 µM); MIC ([6]; Pseudomonas aeruginosa, 1592E, 18 h): 0.195 µg/mL (≈ 0.589 µM); MIC (Escherichia coli O 78; O78, Mueller-Hinton agar, read-out: MIC): < 0.002 µg/mL; MIC ([7]; Staphylococcus aureus, 285, 18 h): 0.391 µg/mL (≈ 1.18 µM); MIC (Salmonella typhimurium; Salmonella enterica, TYPHIMURIUM, 18 h): 0.007 µg/mL (≈ 0.0211 µM); MIC ([8]; Pseudomonas aeruginosa, 9027, 18 h): 0.391 µg/mL (≈ 1.18 µM); MIC ([9]; Klebsiella aerogenes, 1082E, 18 h): < 0.002 µg/mL; MIC ([10]; Enterococcus faecium, MD8B, 18 h): 0.781 µg/mL (≈ 2.36 µM); MIC ([11]; Streptococcus pyogenes, 77A, 18 h): 0.781 µg/mL (≈ 2.36 µM); MIC ([12]; Klebsiella aerogenes, 1552E, 18 h): 0.013 µg/mL (≈ 0.0392 µM)
O=C(O)c1cn(C2CC2)c2c(Cl)c(N3CC4CCCNC4C3)c(F)cc2c1=O (stereo not drawn) [A, 1-cyclopropyl-6-fluoro-7-[(trans-piperidinopyrrolidine)-8-yl]-8-chloro-1,4-dihydroguinoline-4-oxo-3-carboxylicacid]	0.004 µg/mL (≈ 0.00986 µM)	< 0.002 µg/mL	0.013 µg/mL (≈ 0.032 µM)	0.195 µg/mL (≈ 0.48 µM)	0.007 µg/mL (≈ 0.0172 µM)	0.025 µg/mL (≈ 0.0616 µM)	0.025 µg/mL (≈ 0.0616 µM)	0.025 µg/mL (≈ 0.0616 µM)	0.781 µg/mL (≈ 1.92 µM)	0.391 µg/mL (≈ 0.963 µM)	0.781 µg/mL (≈ 1.92 µM)	< 0.002 µg/mL	0.025 µg/mL (≈ 0.0616 µM)	< 0.002 µg/mL	0.781 µg/mL (≈ 1.92 µM)	< 0.002 µg/mL	0.098 µg/mL (≈ 0.241 µM)	0.098 µg/mL (≈ 0.241 µM)	0.049 µg/mL (≈ 0.121 µM)	
COc1c(N2CC3CCCNC3C2)c(F)cc2c(=O)c(C(=O)C[N+](=O)[O-])cn(C3CC3)c12.Cl (racemic) [C, 1-cyclopropyl-3-nitroacetyl-6-fluoro-8-methoxy-7-[(trans-piperidinopyrrolidine)-8-yl]-4-oxo-1,4-dihydroquinoline hydrochloride]	0.004 µg/mL	< 0.002 µg/mL	0.098 µg/mL	0.195 µg/mL	0.004 µg/mL	0.025 µg/mL	0.025 µg/mL	0.098 µg/mL	0.781 µg/mL	0.781 µg/mL	0.781 µg/mL	< 0.002 µg/mL	0.025 µg/mL	0.007 µg/mL	0.781 µg/mL	0.049 µg/mL	0.391 µg/mL	0.391 µg/mL	0.013 µg/mL	
Cl.O=C(C[N+](=O)[O-])c1cn(C2CC2)c2c(Cl)c(N3CC4CCCNC4C3)c(F)cc2c1=O (racemic) [B, 1-cyclopropyl-3-nitroacetyl-6-fluoro-8-chloro-7-[(trans-piperidinopyrrolidine)-8-yl]-4-oxo-1,4-dihydroquinoline hydrochloride]	0.025 µg/mL	0.013 µg/mL	0.098 µg/mL	0.391 µg/mL	0.049 µg/mL	0.049 µg/mL	0.195 µg/mL	0.098 µg/mL	1.563 µg/mL	0.781 µg/mL	0.781 µg/mL	< 0.025 µg/mL	0.098 µg/mL	0.049 µg/mL	0.781 µg/mL	0.098 µg/mL	0.195 µg/mL	0.195 µg/mL	0.098 µg/mL	
COc1c(N2C[C@@H]3CCCN[C@@H]3C2)c(F)cc2c(=O)c(C(=O)C[N+](=O)[O-])cn(C3CC3)c12.Cl (racemic) [D, 1-cyclopropyl-3-nitroacetyl-6-fluoro-8-methoxy-7-[(cis-piperidinopyrrolidine)-8-yl]-4-oxo-1,4-dihydroquinoline hydrochloride]	0.013 µg/mL	0.013 µg/mL	0.098 µg/mL	0.195 µg/mL	0.098 µg/mL	0.098 µg/mL	0.391 µg/mL	0.195 µg/mL	0.781 µg/mL	1.563 µg/mL	0.781 µg/mL	0.049 µg/mL	0.391 µg/mL	0.098 µg/mL	1.563 µg/mL	0.049 µg/mL	0.391 µg/mL	0.391 µg/mL	0.049 µg/mL	
